Assay results: patent US7713994B2 (Wyeth LLC, priority 2005, dated 2010)
Like-named read-outs stand apart in the source and are kept apart here.

Columns and labels:
cyclin D1/cdk 4 enzyme = molecular target: T1, cyclin D1/cdk 4 enzyme (Homo sapiens, UniProt P11802); assay: CDK4 ELISA kinase assay (phospho-Rb ser 795 detection); format: biochemical; conditions: In Vitro Enzyme Assays, 200 μM ATP, read-out: CDK4 IC50
T1 construct: made in house; host or cells: Sf9 insect cells, recombinant baculovirus
How it was run: (§1)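 GST-Rb C-terminal fragment coated on wells; kinase reaction: 200 μM ATP, 0.5 mg/ml BSA, HEPES pH 7.5, 10 mM MgCl2, baculovirus/Sf9 cyclin-CDK, 30° C, 1 h. Readout anti-phospho-Rb Ser795, HRP, TMB, A450. Test compound 10 ug/ml final.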

cyclin E/CDK2 enzyme = molecular target: T2, cyclin E/CDK2 enzyme (Homo sapiens, UniProt P24941); assay: CDK2 ELISA kinase assay (phospho-Rb ser 795 detection); format: biochemical; conditions: In Vitro Enzyme Assays, read-out: CDK2 IC50
T2 construct: made in house; host or cells: Sf9 insect cells, recombinant baculovirus
How it was run: as §1

cyclin B/CDK1 enzyme = molecular target: T3, cyclin B/CDK1 enzyme (Homo sapiens, UniProt P06493); assay: CDK1 ELISA kinase assay (phospho-Rb ser 795 detection); format: biochemical; conditions: In Vitro Enzyme Assays, read-out: CDK1 IC50
T3 construct: purchased New England BioLabs; host or cells: Sf9 insect cells, recombinant baculovirus
How it was run: as §1

BT474 = assay: Cytotoxicity assay (SRB), BT474; format: cell-based; conditions: BT474 cells, SRB, 6 days, read-out: In Vitro Cellular Activity IC50 BT474
How it was run: (§2)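 Cells grown in RPMI 1640 with 5% FBS were treated with compound for three days (HCT-116, LoVo, MCF-7) or six days (BT474). Viable cell mass was quantified by sulforhodamine B staining of TCA-fixed protein and read at 540 nm.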

HCT-116 = assay: Cytotoxicity assay (SRB), HCT-116; format: cell-based; conditions: HCT116 cells, SRB, three days, read-out: In Vitro Cellular Activity IC50 HCT116
How it was run: as §2

LoVo = assay: Cytotoxicity assay (SRB), LoVo; format: cell-based; conditions: LoVo cells, SRB, three days, read-out: In Vitro Cellular Activity IC50 LOVO
How it was run: as §2

MCF-7 = assay: Cytotoxicity assay (SRB), MCF-7; format: cell-based; conditions: MCF-7 cells, SRB, three days, read-out: In Vitro Cellular Activity IC50 MCF-7
How it was run: as §2

T1 sequence (P11802 whole entry, species assumed): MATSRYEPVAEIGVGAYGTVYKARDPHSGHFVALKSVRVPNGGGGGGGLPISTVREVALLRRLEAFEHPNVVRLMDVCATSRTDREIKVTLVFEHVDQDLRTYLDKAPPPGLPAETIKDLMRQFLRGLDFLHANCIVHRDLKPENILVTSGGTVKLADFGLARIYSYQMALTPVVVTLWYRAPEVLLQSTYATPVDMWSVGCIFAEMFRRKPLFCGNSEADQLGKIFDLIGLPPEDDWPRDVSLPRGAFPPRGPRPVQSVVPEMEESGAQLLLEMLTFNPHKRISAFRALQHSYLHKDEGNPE
T1 sequence (P24385 whole entry partner, species assumed): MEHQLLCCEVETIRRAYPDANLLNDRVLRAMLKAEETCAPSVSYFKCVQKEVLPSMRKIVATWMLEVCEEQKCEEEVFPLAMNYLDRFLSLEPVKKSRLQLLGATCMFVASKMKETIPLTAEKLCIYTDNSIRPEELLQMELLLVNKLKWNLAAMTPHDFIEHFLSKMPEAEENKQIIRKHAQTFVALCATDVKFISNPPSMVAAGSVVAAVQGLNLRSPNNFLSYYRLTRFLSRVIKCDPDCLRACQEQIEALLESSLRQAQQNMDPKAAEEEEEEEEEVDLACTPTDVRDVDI
T3 sequence (P06493 whole entry): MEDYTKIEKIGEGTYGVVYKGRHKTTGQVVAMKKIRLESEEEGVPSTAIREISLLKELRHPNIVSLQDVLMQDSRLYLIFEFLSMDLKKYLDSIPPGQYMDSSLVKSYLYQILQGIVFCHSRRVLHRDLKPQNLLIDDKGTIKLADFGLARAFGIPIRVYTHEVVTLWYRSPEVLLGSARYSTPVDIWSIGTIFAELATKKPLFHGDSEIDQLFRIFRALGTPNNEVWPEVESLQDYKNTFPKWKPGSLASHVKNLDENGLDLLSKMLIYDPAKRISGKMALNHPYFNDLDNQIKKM
T3 sequence (P14635 whole entry partner): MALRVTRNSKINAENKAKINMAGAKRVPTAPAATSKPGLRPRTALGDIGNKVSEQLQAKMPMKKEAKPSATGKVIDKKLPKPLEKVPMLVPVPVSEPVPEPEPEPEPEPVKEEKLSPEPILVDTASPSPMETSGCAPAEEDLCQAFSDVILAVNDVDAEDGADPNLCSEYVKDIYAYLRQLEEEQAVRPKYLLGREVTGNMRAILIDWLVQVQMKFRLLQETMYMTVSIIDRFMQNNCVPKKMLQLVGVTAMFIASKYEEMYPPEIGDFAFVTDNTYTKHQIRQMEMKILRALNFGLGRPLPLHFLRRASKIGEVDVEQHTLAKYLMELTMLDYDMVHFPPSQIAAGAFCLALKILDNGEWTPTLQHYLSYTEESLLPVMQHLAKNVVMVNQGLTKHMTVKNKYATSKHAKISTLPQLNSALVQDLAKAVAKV

Row | Compound | IC50 (cyclin D1/cdk 4 enzyme) [µM] | IC50 (cyclin E/CDK2 enzyme) [µM] | IC50 (cyclin B/CDK1 enzyme) [µM] | IC50 (BT474; Homo sapiens, BT-474, 144 h) [µM] | IC50 (HCT-116; Homo sapiens, HCT-116, 72 h) [µM] | IC50 (LoVo; Homo sapiens, LoVo, 72 h) [µM] | IC50 (MCF-7; Homo sapiens, MCF7, 72 h) [µM] | IC50 (BT474) [µM] | IC50 (HCT-116) [µM] | IC50 (LoVo) [µM] | IC50 (MCF-7) [µM]
1 | O=C1NC(=O)c2ccc(Br)cc2/C1=C/NCc1ccc(O)c(O)c1O [Example 175] | 4.5 | 18.5 | 3.1 | > 50 | 28 | > 50 | > 50 |  |  |  | 
2 | COc1ccc(C(C)N/C=C2\C(=O)NC(=O)c3ccc(Br)cc32)cc1O (stereo not drawn) [Example 189, (4Z)-6-Bromo-4-({[1-(3-hydroxy-4-methoxyphenyl)ethyl]amino}methylene)isoquinoline-1,3(2H,4H)-dione] | 0.37 | > 50 | > 50 | 5.8 | 7.2 | 6.4 | 9.9 |  |  |  | 
3 | CCCOc1ccc(CN/C=C2\C(=O)NC(=O)c3ccc(-c4cccc(F)c4)cc32)cc1O [Example 193, (4Z)-6-(3-Fluorophenyl)-4-{[(3-hydroxy-4-propoxybenzyl)amino]methylene}-isoquinoline-1,3(2H,4H)-dione] | 1.4 | > 50 | > 50 | > 50 | 16 | > 50 | 4.4 |  |  |  | 
4 | CCCOc1cc(O)cc(CN/C=C2\C(=O)NC(=O)c3ccc(Br)cc32)c1 [Example 195] | 2 | > 50 | > 50 | 17 | 6.9 | 37 | 14 |  |  |  | 
5 | C[C@@H]1CN(c2ccc(N/C=C3\C(=O)NC(=O)c4ccc(-c5ccc(F)cc5)cc43)cc2)C[C@H](C)N1 [Example 205, (4Z)-4-({[4-(3,5-Dimethylpiperazin-1-yl)phenyl]amino}methylene)-6-(4-fluorophenyl)-isoquinoline-1,3(2H,4H)-dione] | 0.44 | 48.6 | 31 | 2.4 | 1.1 | 3.1 | 1.5 |  |  |  | 
6 | C[C@@H]1CN(c2ccc(N/C=C3\C(=O)NC(=O)c4ccc(-c5ccoc5)cc43)cc2)C[C@H](C)N1 [Example 207, (4Z)-4-({[4-(3,5-Dimethylpiperazin-1-yl)phenyl]amino}methylene)-6-(3-furyl)iso-quinoline-1,3(2H,4H)-dione] | 0.2 | > 50 | > 50 | 0.79 | 1.1 | 2.2 | 0.69 |  |  |  | 
7 | COc1c(O)cc(CN/C=C2\C(=O)NC(=O)c3ccc(Br)cc32)cc1O [Example 210, (4Z)-6-Bromo-4-{[(3,5-dihydroxy-4-methoxybenzyl)amino]methylene}isoquinoline-1,3(2H,4H)-dione] | 0.008 | 2.1 | 18.9 | 13 | 10 | 10 | 6.6 |  |  |  | 
8 | CC(=O)Nc1cc(CN/C=C2\C(=O)NC(=O)c3ccc(Br)cc32)cc(O)c1O [Example 213] | 0.19 | > 50 | > 50 | > 50 | > 50 | 48 | > 50 |  |  |  | 

The remaining compounds from weak to strong by IC50 (cyclin D1/cdk 4 enzyme), led by results:

Row | IC50 (cyclin D1/cdk 4 enzyme) [µM] | IC50 (cyclin E/CDK2 enzyme) [µM] | IC50 (cyclin B/CDK1 enzyme) [µM] | Compound | IC50 (BT474; Homo sapiens, BT-474, 144 h) [µM] | IC50 (HCT-116; Homo sapiens, HCT-116, 72 h) [µM] | IC50 (LoVo; Homo sapiens, LoVo, 72 h) [µM] | IC50 (MCF-7; Homo sapiens, MCF7, 72 h) [µM] | IC50 (BT474) [µM] | IC50 (HCT-116) [µM] | IC50 (LoVo) [µM] | IC50 (MCF-7) [µM]
9 | 33.2 | > 50 | > 50 | COc1ccc(C(=O)NN/C=C2\C(=O)NC(=O)c3ccc(Br)cc32)cc1O [Example 202, N′-[(Z)-(6-Bromo-1,3-dioxo-2,3-dihydroisoquinolin-4(1H)-ylidene)methyl]-3-hydroxy-4-methoxybenzohydrazide] | 18 | > 50 | > 50 | > 50 |  |  |  | 
10 | 15.8 | > 50 | > 50 | CCCOc1ccc(CN/C=C2\C(=O)NC(=O)c3ccc(-c4ccc(F)c(F)c4)cc32)cc1O [Example 194, (4Z)-6-(3,4-Difluorophenyl)-4-{[(3-hydroxy-4-propoxybenzyl)amino]methylene}-isoquinoline-1,3(2H,4H)-dione] | > 50 | > 50 | > 50 | 9.1 |  |  |  | 
11 | 3.1 | 22.1 | 12 | CN1CCN(c2ccc(N/C=C3\C(=O)NC(=O)c4ccc(NC(=O)Cc5cccs5)cc43)cc2)CC1 [Example 198, 1,2,3,4-Tetrahydroisoquinolin-6-yl]-2-thien-2-ylacetamide ′N-[(4Z)-4-({[4-(4-methylpiperazin-1-yl)phenyl]amino}methylene)-1,3-dioxo] |  |  |  |  | 4.3 | 1.8 | 3.7 | 4.3
12 | 2.5 | 20.2 | 38 | O=C1NC(=O)c2ccc(Br)cc2/C1=C/NCCCCO [Example 211, (4Z)-6-Bromo-4-{[(4-hydroxybutyl)amino]methylene}isoquinoline-1,3(2H,4H)-dione] | 29 | 27 | 48 | 24 |  |  |  | 
13 | 0.77 | > 50 | > 50 | CCCOc1cc(CN/C=C2\C(=O)NC(=O)c3ccc(Br)cc32)cc(O)c1OCCC [Example 212, (4Z)-6-Bromo-4-{[(3-hydroxy-4,5-dipropoxybenzyl)amino]methylene}isoquinoline-1,3(2H,4H)-dione] | 47 | 25 | 30 | 37 |  |  |  | 
14 | 0.16 | > 50 | 41.9 | C[C@@H]1CN(c2ccc(N/C=C3\C(=O)NC(=O)c4ccc(-c5ccsc5)cc43)cc2)C[C@H](C)N1 [Example 206, (4Z)-4-({[4-(3,5-Dimethylpiperazin-1-yl)phenyl]amino}methylene)-6-thien-3-ylisoquinoline-1,3(2H,4H)-dione] | 2.9 | 1.6 | 7.4 | 3.7 |  |  |  | 
15 | 0.11 | 4.7 | > 50 | O=C1NC(=O)c2ccc(Br)cc2/C1=C/NCc1cc(O)ccc1O [Example 173, (4Z)-6-Bromo-4-{[(2,5-dihydroxybenzyl)amino]methylene}isoquinoline-1,3(2H,4H)-dione] | 8.3 | 11 | 17 | 12 |  |  |  | 
16 | 0.01 | 9.2 | > 50 | COc1ccc(CN/C=C2\C(=O)NC(=O)c3ccc(-c4cccc(F)c4)cc32)cc1O [Example 209, (4Z)-6-(3-Fluorophenyl)-4-{[(3-hydroxy-4-methoxybenzyl)amino]methylene}iso-quinoline-1,3(2H,4H)-dione] | 9.4 | 7 | 15 | 5.4 |  |  |  | 
17 | 0.009 | 26.5 | > 50 | O=C1NC(=O)c2ccc(-c3ccsc3)cc2/C1=C/NCc1ccc(OC(F)F)c(O)c1 [Example 200, (4Z)-4-({[4-(Difluoromethoxy)-3-hydroxybenzyl]amino}methylene)-6-thien-3-ylisoquinoline-1,3(2H,4H)-dione] | 9.3 | 5.4 | 4.7 | 7.2 |  |  |  | 
18 | 0.009 | 30.3 | > 50 | COc1ccc(CN/C=C2\C(=O)NC(=O)c3ccc(-c4ccc(F)cc4)cc32)cc1O [Example 208, (4Z)-6-(4-Fluorophenyl)-4-{[(3-hydroxy-4-methoxybenzyl)amino]methylene}iso-quinoline-1,3(2H,4H)-dione] | 8.2 | 5.7 | 15 | 3.4 |  |  |  | 
